Consider four molecules from US20160008297A1, “COMPOUNDS FOR PREVENTING, REDUCING AND/OR ALLEVIATING ITCHY SKIN CONDITION(S)” (B.R.A.I.N. Biotechnology Research And Information Network AG, priority 2012, published 2016).

Structures are written as SMILES.

The target of this assay is T1, PAR-2 (Homo sapiens, UniProt P55085).
T1 construct: Human embryonic kidney 293 cells (HEK293) endogenously expressing PAR-2; endogenous in cells; host or cells: HEK293
T1 sequence (P55085 26-397): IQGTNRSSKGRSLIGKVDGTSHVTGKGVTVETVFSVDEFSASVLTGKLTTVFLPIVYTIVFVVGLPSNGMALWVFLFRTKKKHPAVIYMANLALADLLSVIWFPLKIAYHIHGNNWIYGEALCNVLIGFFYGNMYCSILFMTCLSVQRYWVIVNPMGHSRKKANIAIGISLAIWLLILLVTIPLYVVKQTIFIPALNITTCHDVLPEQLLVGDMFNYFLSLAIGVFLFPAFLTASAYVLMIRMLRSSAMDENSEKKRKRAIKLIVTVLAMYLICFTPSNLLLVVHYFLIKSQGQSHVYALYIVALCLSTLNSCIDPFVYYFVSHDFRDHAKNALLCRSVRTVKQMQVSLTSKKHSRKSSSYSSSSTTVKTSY
Briefly: Cell-based calcium assay (Fluo-4 AM) for PAR-2 antagonists, SLIGRL-evoked signal. Conditions: in the presence of 2 μM SLIGRL, HEK293 cells; read-out: IC50 of PAR-2 antagonism (inhibition of SLIGRL induced PAR-2 activation). As for the experimental part:
Cell-based calcium assay for the identification of PAR-2 antagonists based on fluorescent dye Fluo4-AM
Functional modulation of PAR-2 by the tested compounds was measured and quantified using the calcium sensitive fluorescent probe Fluo-4 AM on a fluorescence microplate reader. Activation of PAR-2 by an agonist (SLIGRL) led to an increase in the intracellular calcium concentration and thus an increase in fluorescence intensity.
Human embryonic kidney 293 cells (HEK293) endogenously expressing PAR-2 were cultured in DMEM (high glucose) supplemented with tetracycline-free FCS (10% v/v), L-glutamine (4 mM), blasticidin (15 μg/ml), zeocin (100 μg/ml) and puromycin (2 μg/ml) in a water-saturated atmosphere at 37° C. and 5% CO2.
Cells were seeded onto 96-well clear-bottom black-walled assay plates at a density of 45,000 cells per well in 100 μl of cell culture medium. Intracellular calcium increase in the living cells due to receptor activation was monitored 24 h later using the calcium sensitive fluorescent probe Fluo-4 AM on a fluorescence microplate reader (FlexStation® system, Molecular Devices). Therefore 100 μl Krebs-HEPES (KH) buffer (118 mM NaCl; 4.7 mM KCl; 1.3 mM CaCl2; 1.2 mM MgSO4; 1.2 mM KH2PO4; 4.2 mM NaHCO3; 10 mM Hepes, pH 7.4) supplemented with sulfinpyrazone (250 μM) and Fluo-4 AM (4 μM) were added and the cells were incubated for an additional hour in a water-saturated atmosphere at 37° C. and 5% CO2.
Medium was replaced with 150 μl KH buffer supplemented with sulfinpyrazone (250 μM). Subsequently, 50 μl KH buffer supplemented with the screening compounds (final concentration of 10 μM under measurement conditions) or control substances were added and the cells were incubated for 10 min. under assay conditions in the microplate reader. Changes in fluorescence were recorded at 37° C. after addition of 50 μl KH buffer supplemented with the PAR-2 peptide agonist SLIGRL (final concentration of 2 μM under measurement conditions).
Calcium mobilization was quantified as the change of peak fluorescence (ΔF) over the baseline level (F). The data was analyzed with the software of the microplate reader. Potential PAR-2 antagonists were tested in an effective range of 1-100 μM for their capacity to reduce the SLIGRL-evoked signal.
A cellular in vitro assay was developed with human embryonic kidney 293 cells (HEK293) endogenously expressing PAR-2. The PAR-2 activating peptide SLIGRL (EC50: ˜0.6 μM) was used as an agonistic stimulus with subsequent Fluo-4 dependent intracellular calcium detection (calcium imaging).
With `COc1cc(/C=C/C(=O)CC(=O)/C=C/c2ccc(O)c(OC)c2)ccc1O` [formula 8, 1,7-Bis-(4-hydroxy-3-methoxyphenyl)-hepta-1,6-dien-3,5-dione], the concentration for half-maximal inhibition (IC50) is 25 to 100 µM.
For `COc1ccc(CCC(=O)CC(=O)CCc2ccc(OC)cc2)cc1` [formula 3, 1,7-Bis-(4-methoxyphenyl)-3,5-heptanedione], the IC50 was 67.8 µM.
As for `COc1ccc(/C=C/C(=O)CC(=O)/C=C/c2ccc(OC)cc2)cc1` [formula 7, 1,7-Bis-(4-methoxyphenyl)-hepta-1,6-dien-3,5-dione], the IC50 was 25 to 100 µM.
Take `COc1cc(CCC(=O)CC(=O)CCc2ccc(O)c(OC)c2)ccc1O` [formula 4, 1,7-Bis-(4-hydroxy-3-methoxyphenyl)-3,5-heptanedione]: the half-maximal inhibitory concentration (IC50) fell in the range of 25 to 100 µM.

Broadly, the IC50 is the concentration at which inhibition is half-maximal.
